# Experimental data taken from patent publication US12583861B2, “Derivatives of imidazo[4,5-d]pyridazine, their preparation and their therapeutic application” (SANOFI, priority 2021, dated 2026).
# Read-outs that look alike come from different tables or passages of the source.
# How the values were obtained:
# Format in all cases: cell-based
# human TLR7 = molecular target: T1, human TLR7 (Homo sapiens, UniProt Q9NYK1); test: HEK-Blue hTLR7 reporter cell assay (SEAP, NF-kB/AP-1) for stimulation of human TLR7; settings: HEK-Blue hTLR7 cells, 24 h incubation, SEAP readout; read-out: TLR7_EC50
# T1 construct: host or cells: HEK293 (HEK-Blue hTLR7)
# T1 sequence (Q9NYK1 27-1049): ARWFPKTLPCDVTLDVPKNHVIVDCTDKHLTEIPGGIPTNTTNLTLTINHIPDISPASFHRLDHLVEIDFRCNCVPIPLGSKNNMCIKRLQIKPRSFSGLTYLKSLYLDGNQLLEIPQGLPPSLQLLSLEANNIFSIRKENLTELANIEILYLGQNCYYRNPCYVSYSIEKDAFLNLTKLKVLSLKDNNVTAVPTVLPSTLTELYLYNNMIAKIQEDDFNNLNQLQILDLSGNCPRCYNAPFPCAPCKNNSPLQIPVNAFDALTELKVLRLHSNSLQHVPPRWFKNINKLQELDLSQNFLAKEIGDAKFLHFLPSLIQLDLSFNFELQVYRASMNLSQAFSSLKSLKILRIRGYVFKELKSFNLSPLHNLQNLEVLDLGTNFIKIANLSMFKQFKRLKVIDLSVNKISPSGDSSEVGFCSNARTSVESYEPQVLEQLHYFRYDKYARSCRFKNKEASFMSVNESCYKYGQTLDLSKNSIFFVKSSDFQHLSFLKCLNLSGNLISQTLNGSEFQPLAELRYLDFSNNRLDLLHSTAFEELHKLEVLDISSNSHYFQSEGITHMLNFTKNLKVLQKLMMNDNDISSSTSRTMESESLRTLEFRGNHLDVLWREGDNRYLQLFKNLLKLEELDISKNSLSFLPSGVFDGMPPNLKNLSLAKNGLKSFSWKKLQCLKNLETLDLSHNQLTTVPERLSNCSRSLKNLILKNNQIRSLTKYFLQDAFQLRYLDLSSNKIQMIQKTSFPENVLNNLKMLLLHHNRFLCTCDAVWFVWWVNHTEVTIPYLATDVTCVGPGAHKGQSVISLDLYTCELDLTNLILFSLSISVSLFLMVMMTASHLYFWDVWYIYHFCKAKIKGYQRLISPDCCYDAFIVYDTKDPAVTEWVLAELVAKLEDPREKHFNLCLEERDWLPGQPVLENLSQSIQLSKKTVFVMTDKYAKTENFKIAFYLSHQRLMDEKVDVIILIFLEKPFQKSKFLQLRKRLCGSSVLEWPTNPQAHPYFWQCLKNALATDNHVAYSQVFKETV
# In short: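 Activity expressed as EC50 for half-maximal SEAP induction. Compounds, serially diluted 3-fold from 20 to 0.01 μM, were incubated 24 h at 37 °C, 5% CO2 with HEK-Blue hTLR7 reporter cells (3.10E4/well, plated 18–24 h earlier); supernatant developed with QUANTI-Blue.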
# TNF-α = TNF-α cytokine activation in human PBMC (MSD assay)
# Method: (§1) The other below tests involving measuring the in vitro activity of some compounds of the disclosure on cytokines IFN-α2a, IL-6, IL29 and TNF-α were carried out using human PBMC (PBMCs).
# (§2) The activity described below, with respect to TLR7, TLR8, IFN-α2a, IL-6, IL29 and TNF-α, is given by the half maximal effective concentration (EC50), which corresponds to the concentration required to obtain a 50% of the activation. The lower the EC50, the less the concentration of the compound is required to produce 50% of maximum activation and the higher the potency.
# (§3) In Vitro Assay to Determine IFN-α2a, IL-6, IL29 and TNF-α Cytokine Activation:
# (§4) Peripheral blood mononuclear cells were isolated by Ficoll density gradient centrifugation from peripheral blood samples obtained from healthy donors (EFS). Isolated PBMCs are washed twice with PBS and resuspended in RPMI-1640 medium supplement with 10% fetal bovine serum (FBS) at 5.10^5 cells/well in a 96-well plate. The cells were then incubated with the compounds to test at various doses (20 μM to 4.8.10-6 μM final) for 24 h at 37° C., 5% CO2. After 24 h treatment, the plates are centrifuged and the supernatant were collected and assayed for cytokines IFN-α2a, IL-6, IL29 and TNF-α using the Meso Scale Discovery (MSD) assay platform according to the manufacturer's instructions. Briefly, 25 μL of cell culture supernatants were incubated for 1 h at Room Temperature (RT) in custom Multi-Spot 96-well plates prior coated with capture antibodies. After washing, SULFO-TAG® labeled detection antibodies were added to each of the wells and incubated for 1 h RT before adding a read buffer.
# IL29 = IL29 cytokine activation in human PBMC (MSD assay)
# Method: as §1, §2, §3, §4
# IFN-α2a = IFN-α2a cytokine activation in human PBMC (MSD assay)
# Method: as §1, §2, §3, §4
# IL-6 = IL-6 cytokine activation in human PBMC (MSD assay); settings: read-out: IL6 EC50
# Method: as §1, §2, §3, §4
SMILES,EC50 (human TLR7) [nM],"EC50 (TNF-α; Homo sapiens, PBMC, 24 h) [nM]","EC50 (IL29; Homo sapiens, PBMC, 24 h) [nM]","EC50 (IFN-α2a; Homo sapiens, PBMC, 24 h) [nM]","EC50 (IL-6; Homo sapiens, PBMC, 24 h) [nM]",EC50 (TNF-α; 24 h) [nM],EC50 (IL29; 24 h) [nM],EC50 (IFN-α2a; 24 h) [nM],EC50 (IL-6; 24 h) [nM],"EC50 (TNF-α; 24 h, 2,2,2-trifluoroacetate) [nM]","EC50 (IL29; 24 h, 2,2,2-trifluoroacetate) [nM]","EC50 (IFN-α2a; 24 h, 2,2,2-trifluoroacetate) [nM]","EC50 (IL-6; 24 h, 2,2,2-trifluoroacetate) [nM]"
"CCCCc1nc2c(N)nnc(NCCOC)c2n1Cc1ccc(OC)cc1 [Compound 49, 2-butyl-1-(4-methoxybenzyl)-N7-(2-methoxyethyl)-1H-imidazo[4,5-d]pyridazine-4,7-diamine]",353,5490,388,75,1730,–,–,–,–,–,–,–,–
"CCCCc1nc2c(N)nnc(-c3cc[nH]c3)c2n1Cc1ccc(OC)cc1 [Compound 14, 2-butyl-1-(4-methoxybenzyl)-7-(1H-pyrrol-3-yl)-1H-imidazo[4,5-d]pyridazin-4-amine]",219,708,20,18,106,–,–,–,–,–,–,–,–
"CCCCc1nc2c(N)nnc(N3CCC(c4ccccc4)C3)c2n1C (stereo not shown) [Compound 89, 2-butyl-1-methyl-7-(3-phenylpyrrolidin-1-yl)-1H-imidazo[4,5-d]pyridazin-4-amine]",1200,2350,214,213,466,–,–,–,–,–,–,–,–
"CCCCc1nc2c(N)nnc(N(C)C)c2n1C [Compound 41, 2-butyl-N7,N7,1-trimethyl-1H-imidazo[4,5-d]pyridazine-4,7-diamine]",3070,5200,3040,1220,1280,–,–,–,–,–,–,–,–
"CCCCc1nc2c(N)nnc(SC(C)C)c2n1Cc1ccc(OC)cc1 [Compound 3, 2-butyl-7-(isopropylthio)-1-(4-methoxybenzyl)-1H-imidazo[4,5-d]pyridazin-4-amine]",566,2820,83,62,1410,–,–,–,–,–,–,–,–
"CCCCc1nc2c(N)nnc(N(C)C)c2n1Cc1ccc(OC)cc1 [Compound 71, 2-butyl-1-(4-methoxybenzyl)-N7,N7-dimethyl-1H-imidazo[4,5-d]pyridazine-4,7-diamine]",291,1740,57,63,571,–,–,–,–,–,–,–,–
"C=CCOc1nnc(N)c2nc(CCCC)n(Cc3ccc(OC)cc3)c12 [Compound 6, 7-(allyloxy)-2-butyl-1-(4-methoxybenzyl)-1H-imidazo[4,5-d]pyridazin-4-amine]",295,641,62,112,331,–,–,–,–,–,–,–,–
"CCCCc1nc2c(N)nnc(OC(C)C)c2n1Cc1cccc(CN)c1 [Compound 33, 1-(3-(aminomethyl)benzyl)-2-butyl-7-isopropoxy-1H-imidazo[4,5-d]pyridazin-4-amine 2,2,2-trifluoroacetate]",392,1280,2,3,52,–,–,–,–,–,–,–,–
"CCCCc1nc2c(N)nnc(OC(C)C)c2n1Cc1ccccn1 [Compound 75, 2-butyl-7-isopropoxy-1-(pyridin-2-ylmethyl)-1H-imidazo[4,5-d]pyridazin-4-amine]",179,5120,34,17,181,–,–,–,–,–,–,–,–
"CCCCc1nc2c(N)nnc(C(C)C)c2n1Cc1ccc(OC)cc1 [Compound 18, 2-butyl-7-isopropyl-1-(4-methoxybenzyl)-1H-imidazo[4,5-d]pyridazin-4-amine]",355,2810,109,71,548,–,–,–,–,–,–,–,–
"CCCCc1nc2c(N)nnc(OCCOC)c2n1Cc1ccc(OC)cc1 [Compound 4, 2-butyl-1-(4-methoxybenzyl)-7-(2-methoxyethoxy)-1H-imidazo[4,5-d]pyridazin-4-amine]",1260,> 20000,795,81,1940,–,–,–,–,–,–,–,–

# Now those with a lower EC50 (human TLR7), led by results:
EC50 (human TLR7) [nM],"EC50 (TNF-α; Homo sapiens, PBMC, 24 h) [nM]","EC50 (IL29; Homo sapiens, PBMC, 24 h) [nM]","EC50 (IFN-α2a; Homo sapiens, PBMC, 24 h) [nM]","EC50 (IL-6; Homo sapiens, PBMC, 24 h) [nM]",EC50 (TNF-α; 24 h) [nM],EC50 (IL29; 24 h) [nM],EC50 (IFN-α2a; 24 h) [nM],EC50 (IL-6; 24 h) [nM],"EC50 (TNF-α; 24 h, 2,2,2-trifluoroacetate) [nM]","EC50 (IL29; 24 h, 2,2,2-trifluoroacetate) [nM]","EC50 (IFN-α2a; 24 h, 2,2,2-trifluoroacetate) [nM]","EC50 (IL-6; 24 h, 2,2,2-trifluoroacetate) [nM]",SMILES
160,903,99,89,368,–,–,–,–,–,–,–,–,"CCCCc1nc2c(N)nnc(OCC)c2n1Cc1ccc(OC)cc1 [Compound 48, 2-butyl-7-ethoxy-1-(4-methoxybenzyl)-1H-imidazo[4,5-d]pyridazin-4-amine]"
172,5480,3,3,204,–,–,–,–,–,–,–,–,"CCCCc1nc2c(N)nnc(OC(C)C)c2n1C[C@H]1CCC[C@@H](N)C1 (racemic) [Compound 23, 1-(((1S,3R)-3-aminocyclohexyl)methyl)-2-butyl-7-isopropoxy-1H-imidazo[4,5-d]pyridazin-4-amine (and enantiomer)]"
33,–,–,–,–,284,0.3,0.4,8,–,–,–,–,"CCCCc1nc2c(N)nnc(OC(C)C)c2n1Cc1ccc(CN)cc1 [Compound 21, 1-(4-(aminomethyl)benzyl)-2-butyl-7-isopropoxy-1H-imidazo[4,5-d]pyridazin-4-amine]"
30,–,–,–,–,–,–,–,–,2790,0.1,0.1,165,"CCCCc1nc2c(N)nnc(OC(C)C)c2n1Cc1ccc(CN)cc1 [Compound 22, 1-(4-(aminomethyl)benzyl)-2-butyl-7-isopropoxy-1H-imidazo[4,5-d]pyridazin-4-amine 2,2,2-trifluoroacetate]"
120,453,16,14,177,–,–,–,–,–,–,–,–,"CCCCc1nc2c(N)nnc(N3CCCC3)c2n1Cc1ccc(OC)cc1 [Compound 10, 2-butyl-1-(4-methoxybenzyl)-7-(pyrrolidin-1-yl)-1H-imidazo[4,5-d]pyridazin-4-amine]"
116,655,28,36,75,–,–,–,–,–,–,–,–,"CCCCc1nc2c(N)nnc(OC(C)C)c2n1Cc1ccc(C=O)cc1 [Compound 34, 4-((4-amino-2-butyl-7-isopropoxy-1H-imidazo[4,5-d]pyridazin-1-yl)methyl)benzaldehyde]"
155,> 20000,29,17,186,–,–,–,–,–,–,–,–,"C=C(C)c1nnc(N)c2nc(CCCC)n(Cc3ccc(OC)cc3)c12 [Compound 17, 2-butyl-1-(4-methoxybenzyl)-7-(prop-1-en-2-yl)-1H-imidazo[4,5-d]pyridazin-4-amine]"
103,712,173,103,457,–,–,–,–,–,–,–,–,"CCCCc1nc2c(N)nnc(OC(C)C)c2n1Cc1ccc(OC)cc1 [Compound 1, 2-butyl-7-isopropoxy-1-(4-methoxybenzyl)-1H-imidazo[4,5-d]pyridazin-4-amine]"
53,573,6,3,99,–,–,–,–,–,–,–,–,"CCCCc1nc2c(N)nnc(NC(C)C)c2n1Cc1ccc(OC)cc1 [Compound 2, 2-butyl-N7-isopropyl-1-(4-methoxybenzyl)-1H-imidazo[4,5-d]pyridazin-4,7-diamine]"
